One block for each compound: values may come before it.
Key:
[1] = High-throughput RLM stability; format: in vitro ADME; conditions: rat, rat liver microsomes, pH 7.4
hALDH1A1 [2] = target: T1, hALDH1A1 (Homo sapiens, UniProt P00352); assay: biochemical
T1 sequence (P00352 1-501): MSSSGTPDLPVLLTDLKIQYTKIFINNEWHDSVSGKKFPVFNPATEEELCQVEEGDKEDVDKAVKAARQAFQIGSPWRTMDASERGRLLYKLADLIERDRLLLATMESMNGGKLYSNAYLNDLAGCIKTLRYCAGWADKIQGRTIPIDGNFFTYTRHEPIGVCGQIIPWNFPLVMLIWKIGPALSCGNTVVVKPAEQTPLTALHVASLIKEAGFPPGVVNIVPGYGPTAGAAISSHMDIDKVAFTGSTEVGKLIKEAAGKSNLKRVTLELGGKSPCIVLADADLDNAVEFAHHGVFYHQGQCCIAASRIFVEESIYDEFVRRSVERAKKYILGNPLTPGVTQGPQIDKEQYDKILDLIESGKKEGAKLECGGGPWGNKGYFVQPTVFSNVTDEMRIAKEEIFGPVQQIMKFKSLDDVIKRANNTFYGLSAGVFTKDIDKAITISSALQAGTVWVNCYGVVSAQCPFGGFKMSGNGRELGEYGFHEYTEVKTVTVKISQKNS

human ALDH1B1 = target: T2, human ALDH1B1 (Homo sapiens, UniProt P30837); assay: biochemical
T2 sequence (P30837 18-517): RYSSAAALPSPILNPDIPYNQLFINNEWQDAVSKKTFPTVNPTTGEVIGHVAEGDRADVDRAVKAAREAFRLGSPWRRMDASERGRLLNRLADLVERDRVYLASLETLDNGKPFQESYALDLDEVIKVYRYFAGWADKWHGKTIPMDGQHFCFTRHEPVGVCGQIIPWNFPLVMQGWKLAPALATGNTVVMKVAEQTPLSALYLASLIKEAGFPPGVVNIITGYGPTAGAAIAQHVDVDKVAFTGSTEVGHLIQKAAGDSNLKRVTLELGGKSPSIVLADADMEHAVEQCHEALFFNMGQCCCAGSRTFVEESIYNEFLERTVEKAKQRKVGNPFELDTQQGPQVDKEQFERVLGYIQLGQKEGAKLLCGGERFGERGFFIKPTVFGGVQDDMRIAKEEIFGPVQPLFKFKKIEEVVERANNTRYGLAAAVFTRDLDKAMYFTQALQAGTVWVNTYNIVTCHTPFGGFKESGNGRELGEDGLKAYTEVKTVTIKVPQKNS

human ALDH2 = target: T3, human ALDH2 (Homo sapiens, UniProt P05091); assay: ALDH enzymatic assay, ALDH2; format: biochemical
T3 sequence (P05091 18-517): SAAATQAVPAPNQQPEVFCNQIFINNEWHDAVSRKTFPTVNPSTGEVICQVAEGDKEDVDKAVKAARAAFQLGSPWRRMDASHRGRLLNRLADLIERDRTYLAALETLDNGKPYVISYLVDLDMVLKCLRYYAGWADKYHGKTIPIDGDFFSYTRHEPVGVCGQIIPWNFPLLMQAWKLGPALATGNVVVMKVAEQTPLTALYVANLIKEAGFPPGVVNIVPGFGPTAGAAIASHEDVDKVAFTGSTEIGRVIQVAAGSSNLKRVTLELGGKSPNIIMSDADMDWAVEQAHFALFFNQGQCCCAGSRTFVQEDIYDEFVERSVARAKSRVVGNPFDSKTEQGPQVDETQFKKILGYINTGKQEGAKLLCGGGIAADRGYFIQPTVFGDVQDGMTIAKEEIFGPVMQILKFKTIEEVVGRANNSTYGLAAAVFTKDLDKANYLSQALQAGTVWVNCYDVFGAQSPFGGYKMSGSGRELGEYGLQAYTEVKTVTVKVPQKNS

physchem = conditions: aqueous medium at pH 7.4, pH 7.4, aqueous buffer, kinetic from dmso stock
hALDH1A1 [3] = target: T1, hALDH1A1; assay: Primary qHTS against hALDH1A1; format: biochemical
ALDH2 = conditions: read-out: ALDH2 inhibition; cited from earlier work
cocaine-seeking behavior = conditions: cited from earlier work
[4] = CD1 mouse liver microsomal stability; format: in vitro ADME; conditions: mouse liver microsomes
[5] = test system: 168 GPCRs covering 60 receptor families; assay: gpcrMAX panel profiling; format: cell-based; conditions: agonist and antagonist mode
[6] = test system: more than 450 human kinases; assay: DiscoveRx KINOMEscan off-target kinase profiling; format: binding; conditions: 10 µM, hit = inhibition of ≥55%
[7] = Pharmacokinetics in CD1 mice; format: in vivo; conditions: CD1, mouse
Plasma protein binding = format: in vitro ADME
[8] = Multipoint rat liver microsomal stability; format: in vitro ADME
[9] = In vitro stability in CD1 mouse plasma; format: in vitro ADME
[10] = microsomes
Caco-2 permeability = format: in vitro ADME; conditions: human

half-life at 1 µM [1]: > 30 min
IC50 (hALDH1A1 [2]): 25100 ± 5900 nM
Structure (SMILES): Cn1c(=O)c2[nH]c(OC3CCN(C(=O)C4CC4)CC3)nc2n(C)c1=O [Compound 22, 8-((1-(cyclopropanecarbonyl)piperidin-4-yl)oxy)-1,3-dimethyl-1H-purine-2,6(3H,7H)-dione]

half-life at 1 µM [1]: > 30 min
IC50 (hALDH1A1 [2]): 214 ± 28 nM
Structure (SMILES): Cn1c(=O)c2c(nc(OC3CCN(C(=O)C4CC4)CC3)n2Cc2ccccc2)n(C)c1=O [Compound 21, 7-benzyl-8-((1-(cyclopropanecarbonyl)piperidin-4-yl)oxy)-1,3-dimethyl-1H-purine-2,6(3H,7H)-dione]

IC50 (human ALDH1B1): > 57000 nM
half-life at 1 µM [1]: 4 min
IC50 (hALDH1A1 [2]): 84 ± 14 nM
IC50 (human ALDH2): 15300 nM
Structure (SMILES): Cc1cccc(Cn2c(OC3CCN(C(=O)C4CC4)CC3)nc3c2c(=O)n(C)c(=O)n3C)c1 [Compound 34, 8-((1-(cyclopropanecarbonyl)piperidin-4-yl)oxy)-1,3-dimethyl-7-(3-methylbenzyl)-1H-purine-2,6(3H,7H)-dione]

half-life at 1 µM [1]: 1 min
IC50 (hALDH1A1 [2]): 30 ± 12 nM
Structure (SMILES): Cn1c(=O)c2c(nc(OC3CCN(C(=O)C4CC4)CC3)n2CCC2CCCCC2)n(C)c1=O [Compound 54, 7-(2-cyclohexylethyl)-8-((1-(cyclopropanecarbonyl)piperidin-4-yl)oxy)-1,3-dimethyl-1H-purine-2,6(3H,7H)-dione]

IC50 (human ALDH1B1): > 57000 nM
half-life at 1 µM [1]: 5 min
solubility (physchem): > 62 µg/mL
IC50 (hALDH1A1 [2]): 40 ± 5 nM
IC50 (human ALDH2): 2400 nM
IC50 (hALDH1A1 [3]): 84 nM
Structure (SMILES): CCOC(=O)N1CCN(Cc2nc3c(c(=O)n(C)c(=O)n3C)n2Cc2cccc(C)c2)CC1 [Compound 5, ethyl 4-((1,3-dimethyl-7-(3-methylbenzyl)-2,6-dioxo-2,3,6,7-tetrahydro-1H-purin-8-yl)methyl)piperazine-1-carboxylate]

Structure (SMILES): CS(=O)(=O)Nc1ccc(-c2coc3cc(OCc4cccc(C(=O)O)c4)ccc3c2=O)cc1 [Compound 1]
IC50 (ALDH2): 29 nM
reduction of cocaine-seeking behavior (cocaine-seeking behavior): demonstrated activity in the reduction of cocaine-seeking behavior

half-life at 1 µM [1]: 21 min
IC50 (hALDH1A1 [2]): 13700 ± 4900 nM
Structure (SMILES): Cc1cccc(Cn2c(OC3CCNCC3)nc3c2c(=O)n(C)c(=O)n3C)c1 [Compound 14, 1,3-dimethyl-7-(3-methylbenzyl)-8-(piperidin-4-yloxy)-1H-purine-2,6(3H,7H)-dione]

IC50 (human ALDH1B1): > 57000 nM
half-life [4]: 17 min
half-life at 1 µM [1]: > 30 min
off-target kinase activity (KINOMEscan) [6]: no significant hits
AUC(0-t) ([7]; brain, po, 10 mg/kg): 261 ng·h/mL
Cmax ([7]; brain, po, 10 mg/kg): 1130 ng/mL
half-life ([7]; brain, po, 10 mg/kg): 24 min
AUC(0-t) ([7]; liver, po, 10 mg/kg): 1880 ng·h/mL
Cmax ([7]; liver, po, 10 mg/kg): 2690 ng/mL
half-life ([7]; liver, po, 10 mg/kg): 24 min
half-life ([7]; plasma, intravenous, oral, intraperitoneal): < 60 min
AUC(0-t) ([7]; plasma, ip, 30 mg/kg): 5670 ng·h/mL
Cmax ([7]; plasma, ip, 30 mg/kg): 8080 ng/mL
bioavailability ([7]; plasma, ip, 30 mg/kg): 100%
half-life ([7]; plasma, ip, 30 mg/kg): 42 min
AUC(0-t) ([7]; plasma, iv, 2 mg/kg): 332 ng·h/mL
C0 ([7]; plasma, iv, 2 mg/kg): 2070 ng/mL
Vd ([7]; plasma, iv, 2 mg/kg): 1.8 L/kg
clearance ([7]; plasma, iv, 2 mg/kg): 98 mL/min/kg
half-life ([7]; plasma, iv, 2 mg/kg): 30 min
AUC(0-t) ([7]; plasma, po, 10 mg/kg): 484 ng·h/mL
Cmax ([7]; plasma, po, 10 mg/kg): 696 ng/mL
bioavailability ([7]; plasma, po, 10 mg/kg): 29%
half-life ([7]; plasma, po, 10 mg/kg): 24 min
plasma protein binding (Plasma protein binding): 68.6 % bound
multipoint rat liver microsomal stability [8]: 84 min
in vitro stability in CD1 mouse plasma [9]: > 60 min
human liver microsomal stability (HLM) [10]: > 120 min
Papp A→B (Caco-2 permeability): 19.3 ×10⁻⁶ cm/s
Papp B→A (Caco-2 permeability): 19.6 ×10⁻⁶ cm/s
Structure (SMILES): CC(C)CCn1c(CN2CCN(C(=O)C3CC3)CC2)nc2c1c(=O)n(C)c(=O)n2C [Compound 64, 8-((4-(cyclopropanecarbonyl)piperazin-1-yl)methyl)-7-isopentyl-1,3-dimethyl-1H-purine-2,6(3H,7H)-dione]
gpcrMAX off-target activity [5]: very little activity in either agonist or antagonist mode

half-life at 1 µM [1]: 1 min
IC50 (hALDH1A1 [2]): 19200 ± 3300 nM
Structure (SMILES): Cc1cccc(Cn2c(OC3CCN(c4nccc(C)n4)CC3)nc3c2c(=O)n(C)c(=O)n3C)c1 [Compound 19, 1,3-dimethyl-7-(3-methylbenzyl)-8-((1-(4-methylpyrimidin-2-yl)-piperidin-4-yl)oxy)-1H-purine-2,6(3H,7H)-dione]

half-life at 1 µM [1]: 2 min
IC50 (hALDH1A1 [2]): 570 ± 156 nM
Structure (SMILES): CCOC(=O)N1CCN(c2nc3c(c(=O)n(C)c(=O)n3C)n2Cc2cccc(C)c2)CC1 [Compound 11, Ethyl 4-(1,3-Dimethyl-7-(3-methylbenzyl)-2,6-dioxo-2,3,6,7-tetrahydro-1H-purin-8-yl)piperazine-1-carboxylate]

half-life at 1 µM [1]: 14 min
IC50 (hALDH1A1 [2]): 629 ± 179 nM
Structure (SMILES): Cn1c(=O)c2c(nc(OC3CCN(C(=O)C4CC4)CC3)n2CCc2ccccc2)n(C)c1=O [Compound 39, 8-((1-(cyclopropanecarbonyl)piperidin-4-yl)oxy)-1,3-dimethyl-7-phenethyl-1H-purine-2,6(3H,7H)-dione]

IC50 (human ALDH1B1): > 57000 nM
half-life at 1 µM [1]: 8 min
solubility (physchem): < 1 µg/mL
IC50 (hALDH1A1 [2]): 57 nM
IC50 (human ALDH2): 6100 nM
Structure (SMILES): CNC(=O)c1ccc(Oc2nc3c(c(=O)n(C)c(=O)n3C)n2Cc2cccc(C)c2)cc1 [Compound 12, 4-((1,3-dimethyl-7-(3-methylbenzyl)-2,6-dioxo-2,3,6,7-tetrahydro-1H-purin-8-yl)oxy)-N-methylbenzamide]
